According to patent US6355799B1, “Substituted benzene compounds, process for their preparation, and herbicidal and defoliant compositions containing them” (ISK Americas Incorporated, priority 1997, dated 2002):

Experiments:
Format in all cases: in vivo
[1] = tested on: upland rice (Oryza sp., var. Tebonnet, RICE); assay: Post-emerge test, crop safety; conditions: phytotoxicity rating 0-100 (0 no damage, 100 complete death), 14 days after application
In short: (§1)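 Fourteen days after spraying, crop and weed injury was graded visually from 0, no effect, to 100, every plant dead. Test substances were dissolved in acetone and applied at 15–1000 g ai/ha with a flat-fan nozzle. Application was either pre-emergence, one day after sowing, or post-emergence at the 2–3 leaf stage.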

[2] = tested on: field corn (Zea mays L., var. Dekalb 535, CORN); assay: Post-emerge test, crop safety; conditions: phytotoxicity rating 0-100 (0 no damage, 100 complete death), 14 days after application
In short: as §1

[3] = tested on: large crabgrass (Digitaria sanguinalis, DIGSA); assay: Post-emerge test, greenhouse herbicide activity screening; conditions: phytotoxicity rating 0-100 (0 no damage, 100 complete death), 14 days after application
In short: (§2)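 Herbicidal damage is scored 0 (none) to 100 (complete plant death) two weeks after a simulated field spray. Rates span 15–1000 g ai/ha, delivered in acetone at 187 l/ha. For post-emergence treatments, plants have 2–3 leaves and the spray carries 0.25% v/v non-ionic surfactant.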

[4] = tested on: ivyleaf morningglory (Ipomoea hederacea, IPOHE); assay: as above; conditions: phytotoxicity rating 0-100 (0 no damage, 100 complete death), 14 days after application
In short: as §2

[5] = tested on: green foxtail (Setaria viridis, SETVI); assay: as above; conditions: phytotoxicity rating 0-100 (0 no damage, 100 complete death), 14 days after application
In short: as §2

[6] = tested on: barnyardgrass (Echinochloa crus-galli, ECHCG); assay: as above; conditions: phytotoxicity rating 0-100 (0 no damage, 100 complete death), 14 days after application
In short: as §2

[7] = tested on: redroot pigweed (Amaranthus retroflexus, AMARE); assay: as above; conditions: phytotoxicity rating 0-100 (0 no damage, 100 complete death), 14 days after application
In short: as §2

[8] = tested on: velvetleaf (Abutilon theophrasti, ABUTH); assay: as above; conditions: phytotoxicity rating 0-100 (0 no damage, 100 complete death), 14 days after application
In short: as §2

[9] = tested on: sicklepod (Cassia obtusifolia, CASOB); assay: as above; conditions: phytotoxicity rating 0-100 (0 no damage, 100 complete death), 14 days after application
In short: as §2

[10] = tested on: lambsquarters (Chenopodium album, CHEAL); assay: as above; conditions: phytotoxicity rating 0-100 (0 no damage, 100 complete death), 14 days after application
In short: as §2

[11] = tested on: common ragweed (Ambrosia artemisizfolia L., AMBEL); assay: as above; conditions: phytotoxicity rating 0-100 (0 no damage, 100 complete death), 14 days after application
In short: as §2

[12] = tested on: johnsongrass (Sorghum halepense, SORHA); assay: as above; conditions: phytotoxicity rating 0-100 (0 no damage, 100 complete death), 14 days after application
In short: as §2

[13] = tested on: upland rice (Oryza sp., var. Tebonnet, RICE); assay: Pre-emerge test, crop safety; conditions: pre-emerge, rated 14 days after application, 0 = no damage, 100 = complete death
In short: as §1

[14] = tested on: field corn (Zea mays L., var. Dekalb 535, CORN); assay: Pre-emerge test, crop safety; conditions: pre-emerge, rated 14 days after application, 0 = no damage, 100 = complete death
In short: as §1

[15] = tested on: redroot pigweed (Amaranthus retroflexus, AMARE); assay: Pre-emerge test, greenhouse herbicide activity screening; conditions: pre-emerge, rated 14 days after application, 0 = no damage, 100 = complete death
In short: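 Compounds in acetone were track-sprayed at 187 l/ha, 15–1000 g ai/ha, onto sandy loam pots. Pre-emerge seeds were sown one day before spraying, with surface watering afterwards. Post-emerge plants were at the 2–3 leaf stage and sprayed with 0.25% v/v non-ionic surfactant. Injury was rated 0–100 at 14 days.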

[16] = tested on: large crabgrass (Digitaria sanguinalis, DIGSA); assay: as above; conditions: pre-emerge, rated 14 days after application, 0 = no damage, 100 = complete death
In short: as §1

[17] = tested on: ivyleaf morningglory (Ipomoea hederacea, IPOHE); assay: as above; conditions: pre-emerge, rated 14 days after application, 0 = no damage, 100 = complete death
In short: as §1

[18] = tested on: green foxtail (Setaria viridis, SETVI); assay: as above; conditions: pre-emerge, rated 14 days after application, 0 = no damage, 100 = complete death
In short: as §1

[19] = tested on: barnyardgrass (Echinochloa crus-galli, ECHCG); assay: as above; conditions: pre-emerge, rated 14 days after application, 0 = no damage, 100 = complete death
In short: as §1

[20] = tested on: velvetleaf (Abutilon theophrasti, ABUTH); assay: as above; conditions: pre-emerge, rated 14 days after application, 0 = no damage, 100 = complete death
In short: as §1

[21] = tested on: sicklepod (Cassia obtusifolia, CASOB); assay: as above; conditions: pre-emerge, rated 14 days after application, 0 = no damage, 100 = complete death
In short: as §1

[22] = tested on: lambsquarters (Chenopodium album, CHEAL); assay: as above; conditions: pre-emerge, rated 14 days after application, 0 = no damage, 100 = complete death
In short: as §1

[23] = tested on: common ragweed (Ambrosia artemisizfolia L., AMBEL); assay: as above; conditions: pre-emerge, rated 14 days after application, 0 = no damage, 100 = complete death
In short: as §1

[24] = tested on: johnsongrass (Sorghum halepense, SORHA); assay: as above; conditions: pre-emerge, rated 14 days after application, 0 = no damage, 100 = complete death
In short: as §1

COc1c(Cl)cc(F)c(-n2c(=O)cc(C(F)(F)F)n(C)c2=O)c1NS(=O)(=O)c1ccc(C)cc1 [2-26]
Post-emerge Herbicidal Activity RICE (crop damage) ([1]; 63 g ai/ha): 0 | Post-emerge Herbicidal Activity RICE (crop damage) ([1]; 250 g ai/ha): 0 | Post-emerge Herbicidal Activity CORN (crop damage) ([2]; 63 g ai/ha): 0 | Post-emerge Herbicidal Activity CORN (crop damage) ([2]; 250 g ai/ha): 0 | Post-emerge Herbicidal Activity DIGSA ([3]; 63 g ai/ha): 0 | Post-emerge Herbicidal Activity DIGSA ([3]; 250 g ai/ha): 0 | Post-emerge Herbicidal Activity IPOHE ([4]; 63 g ai/ha): 0 | Post-emerge Herbicidal Activity IPOHE ([4]; 250 g ai/ha): 30 | Post-emerge Herbicidal Activity SETVI ([5]; 63 g ai/ha): 0 | Post-emerge Herbicidal Activity SETVI ([5]; 250 g ai/ha): 0 | Post-emerge Herbicidal Activity ECHCG ([6]; 63 g ai/ha): 0 | Post-emerge Herbicidal Activity ECHCG ([6]; 250 g ai/ha): 0 | Post-emerge Herbicidal Activity AMARE ([7]; 63 g ai/ha): 0 | Post-emerge Herbicidal Activity AMARE ([7]; 250 g ai/ha): 20 | Post-emerge Herbicidal Activity ABUTH ([8]; 63 g ai/ha): 0 | Post-emerge Herbicidal Activity ABUTH ([8]; 250 g ai/ha): 40 | Post-emerge Herbicidal Activity CASOB ([9]; 63 g ai/ha): 0 | Post-emerge Herbicidal Activity CASOB ([9]; 250 g ai/ha): 0 | Post-emerge Herbicidal Activity CHEAL ([10]; 63 g ai/ha): 0 | Post-emerge Herbicidal Activity CHEAL ([10]; 250 g ai/ha): 20 | Post-emerge Herbicidal Activity AMBEL ([11]; 63 g ai/ha): 0 | Post-emerge Herbicidal Activity AMBEL ([11]; 250 g ai/ha): 0 | Post-emerge Herbicidal Activity SORHA ([12]; 63 g ai/ha): 0 | Post-emerge Herbicidal Activity SORHA ([12]; 250 g ai/ha): 0 | Pre-emerge crop damage RICE (phytotoxicity rating, scale 0-100) ([13]; 63 g ai/ha): 0 | Pre-emerge crop damage RICE (phytotoxicity rating, scale 0-100) ([13]; 250 g ai/ha): 0 | Pre-emerge crop damage CORN (phytotoxicity rating, scale 0-100) ([14]; 63 g ai/ha): 0 | Pre-emerge crop damage CORN (phytotoxicity rating, scale 0-100) ([14]; 250 g ai/ha): 0 | Pre-emerge Herbicidal Activity AMARE (phytotoxicity rating, scale 0-100) ([15]; 63 g ai/ha): 0 | Pre-emerge Herbicidal Activity AMARE (phytotoxicity rating, scale 0-100) ([15]; 250 g ai/ha): 80 | Pre-emerge Herbicidal Activity DIGSA (phytotoxicity rating, scale 0-100) ([16]; 63 g ai/ha): 0 | Pre-emerge Herbicidal Activity DIGSA (phytotoxicity rating, scale 0-100) ([16]; 250 g ai/ha): 0 | Pre-emerge Herbicidal Activity IPOHE (phytotoxicity rating, scale 0-100) ([17]; 63 g ai/ha): 0 | Pre-emerge Herbicidal Activity IPOHE (phytotoxicity rating, scale 0-100) ([17]; 250 g ai/ha): 0 | Pre-emerge Herbicidal Activity SETVI (phytotoxicity rating, scale 0-100) ([18]; 63 g ai/ha): 0 | Pre-emerge Herbicidal Activity SETVI (phytotoxicity rating, scale 0-100) ([18]; 250 g ai/ha): 0 | Pre-emerge Herbicidal Activity ECHCG (phytotoxicity rating, scale 0-100) ([19]; 63 g ai/ha): 0 | Pre-emerge Herbicidal Activity ECHCG (phytotoxicity rating, scale 0-100) ([19]; 250 g ai/ha): 0 | Pre-emerge Herbicidal Activity ABUTH (phytotoxicity rating, scale 0-100) ([20]; 63 g ai/ha): 0 | Pre-emerge Herbicidal Activity ABUTH (phytotoxicity rating, scale 0-100) ([20]; 250 g ai/ha): 0 | Pre-emerge Herbicidal Activity CASOB (phytotoxicity rating, scale 0-100) ([21]; 63 g ai/ha): 0 | Pre-emerge Herbicidal Activity CASOB (phytotoxicity rating, scale 0-100) ([21]; 250 g ai/ha): 0 | Pre-emerge Herbicidal Activity CHEAL (phytotoxicity rating, scale 0-100) ([22]; 63 g ai/ha): 0 | Pre-emerge Herbicidal Activity CHEAL (phytotoxicity rating, scale 0-100) ([22]; 250 g ai/ha): 90 | Pre-emerge Herbicidal Activity AMBEL (phytotoxicity rating, scale 0-100) ([23]; 63 g ai/ha): 0 | Pre-emerge Herbicidal Activity AMBEL (phytotoxicity rating, scale 0-100) ([23]; 250 g ai/ha): 0 | Pre-emerge Herbicidal Activity SORHA (phytotoxicity rating, scale 0-100) ([24]; 63 g ai/ha): 0 | Pre-emerge Herbicidal Activity SORHA (phytotoxicity rating, scale 0-100) ([24]; 250 g ai/ha): 0
